# Biological target: ATP-dependent translocase ABCB1 (Homo sapiens, UniProt P08183)
# Experiment: TP_TRANSPORTER: increase in Rhodamine 123 intracellular accumulation in AML-2/D100 cells
# Type: functional, cell-based
# Chain of ATP-dependent translocase ABCB1 (P08183 whole entry): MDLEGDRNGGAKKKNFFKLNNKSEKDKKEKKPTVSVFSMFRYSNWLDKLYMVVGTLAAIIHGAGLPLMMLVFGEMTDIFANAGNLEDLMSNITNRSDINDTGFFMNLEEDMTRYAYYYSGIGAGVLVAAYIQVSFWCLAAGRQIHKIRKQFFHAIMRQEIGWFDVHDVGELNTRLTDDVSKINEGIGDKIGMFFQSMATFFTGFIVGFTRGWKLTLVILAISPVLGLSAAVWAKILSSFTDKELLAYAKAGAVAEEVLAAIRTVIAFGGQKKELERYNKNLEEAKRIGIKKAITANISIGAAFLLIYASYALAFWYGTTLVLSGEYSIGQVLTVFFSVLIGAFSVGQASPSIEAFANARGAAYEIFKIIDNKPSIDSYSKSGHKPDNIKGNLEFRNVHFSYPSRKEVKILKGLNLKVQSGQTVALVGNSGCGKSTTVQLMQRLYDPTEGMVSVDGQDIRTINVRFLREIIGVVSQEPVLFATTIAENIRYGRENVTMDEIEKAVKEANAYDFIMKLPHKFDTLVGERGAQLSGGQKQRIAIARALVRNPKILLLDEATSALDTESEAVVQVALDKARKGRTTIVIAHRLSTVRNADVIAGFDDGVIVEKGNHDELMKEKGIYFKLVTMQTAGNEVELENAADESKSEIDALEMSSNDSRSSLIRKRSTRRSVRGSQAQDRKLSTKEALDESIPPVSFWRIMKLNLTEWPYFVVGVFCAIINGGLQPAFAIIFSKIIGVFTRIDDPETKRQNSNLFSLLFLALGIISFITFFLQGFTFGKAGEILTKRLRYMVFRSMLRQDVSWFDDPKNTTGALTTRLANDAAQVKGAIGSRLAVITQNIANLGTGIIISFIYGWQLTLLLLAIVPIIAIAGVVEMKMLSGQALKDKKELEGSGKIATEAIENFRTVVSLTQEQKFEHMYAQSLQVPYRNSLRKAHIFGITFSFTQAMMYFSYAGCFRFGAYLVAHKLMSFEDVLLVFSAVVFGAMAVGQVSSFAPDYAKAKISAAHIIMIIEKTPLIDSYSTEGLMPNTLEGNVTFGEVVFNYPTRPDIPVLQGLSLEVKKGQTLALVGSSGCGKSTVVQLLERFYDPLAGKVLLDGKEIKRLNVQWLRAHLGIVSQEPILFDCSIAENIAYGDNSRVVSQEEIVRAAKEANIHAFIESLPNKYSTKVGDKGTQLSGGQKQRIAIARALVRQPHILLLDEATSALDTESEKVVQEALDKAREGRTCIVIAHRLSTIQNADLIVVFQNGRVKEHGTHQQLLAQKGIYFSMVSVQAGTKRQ
structure (smiles),measurement,value
COc1cc(OC)c2c(=O)cc(-c3cc(OC)c(OC)c(OC)c3)oc2c1,Activity,inhibitor [+]

# — ChEMBL document CHEMBL2074200, “Reversal of P-glycoprotein-mediated MDR by 5,7,3',4',5'-pentamethoxyflavone and SAR” (Biochem Biophys Res Commun, 2004)
